Data from patent US20250188094A1, “PYRAZOLE MEMBRANE-ASSOCIATED TYROSINE-AND THREONINE-SPECIFIC CDC2-INHIBITORY KINASE (PKMYT1) INHIBITORS AND USES THEREOF” (Insilico Medicine IP Limited, priority 2022, published 2025).

Assays:
PKMYT1 = PKMYT1 (Homo sapiens (Human), UniProt Q99640); experiment: PKMYT1 HTRF Assay; assay type: binding; settings: Tracer 178, GST-Tb, read-out: MYT1 HTRF IC50
Protocol: Example A: PKMYT1 HTRF Assay
Compound serial dilution was performed by Echo, and the final concentrations vary from 10 μM to 0.5 nM. This was filled by the addition of 5 μL/well of Enzyme solution to the assay plate containing the compound. The plate was centrifuged at 1000 rpm for 1 minute, and incubate 15 minutes at 25° C. Then 5 μL/well of tracer solution (Tracer 178) was added to initiate the reaction, and incubate for 60 minutes at 25° C. Next 5 μL GST-Tb was added into the assay plate, the plate was centrifuged at 1000 rpm for 1 minute, and incubate for 15 minutes at 25° C. The assay plate was read on Envision.

WEE1 = WEE1 (Homo sapiens (Human), UniProt P30291); experiment: WEE1 ADP-Glo Assay; assay type: biochemical; settings: luminescence
Protocol: Example B: WEE1 ADP-Glo Assay
Compound serial dilution is performed by Echo, and the final concentrations vary from 10 μM to 0.5 nM. This was filled by the addition of 5 μL/well of Enzyme solution to the assay plate containing the compound. The plate was centrifuged at 1000 rpm for 1 minute, and incubate 15 minutes at 25° C. Then 5 μL/well of substrate solution was added to initiate the reaction, and incubate for 60 minutes at 25° C. Next 10 μL kinase detection reagent was added into the assay plate, the plate was centrifuged at 1000 rpm for 1 minute, and incubate for 60 minutes at 25° C. The assay plate was read on Envision for US LUM as RLU.

WEE1, sequence (P30291 whole entry, species assumed): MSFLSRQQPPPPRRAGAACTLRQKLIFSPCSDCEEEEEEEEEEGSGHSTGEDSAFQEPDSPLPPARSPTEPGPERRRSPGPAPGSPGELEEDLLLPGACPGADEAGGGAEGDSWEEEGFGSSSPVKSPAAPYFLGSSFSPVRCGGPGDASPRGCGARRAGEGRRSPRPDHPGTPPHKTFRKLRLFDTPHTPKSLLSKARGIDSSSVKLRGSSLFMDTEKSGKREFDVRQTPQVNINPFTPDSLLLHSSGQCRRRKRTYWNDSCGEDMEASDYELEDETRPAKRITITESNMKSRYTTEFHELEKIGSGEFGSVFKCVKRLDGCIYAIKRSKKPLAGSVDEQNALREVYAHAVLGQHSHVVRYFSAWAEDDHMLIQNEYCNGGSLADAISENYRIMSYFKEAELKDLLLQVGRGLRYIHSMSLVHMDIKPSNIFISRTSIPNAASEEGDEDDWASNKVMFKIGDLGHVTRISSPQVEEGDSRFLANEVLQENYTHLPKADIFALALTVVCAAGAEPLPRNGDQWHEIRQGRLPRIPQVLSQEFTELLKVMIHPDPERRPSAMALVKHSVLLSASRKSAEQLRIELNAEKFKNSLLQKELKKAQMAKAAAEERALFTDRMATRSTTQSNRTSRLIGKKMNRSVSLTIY
PKMYT1, sequence (Q99640 whole entry, species assumed): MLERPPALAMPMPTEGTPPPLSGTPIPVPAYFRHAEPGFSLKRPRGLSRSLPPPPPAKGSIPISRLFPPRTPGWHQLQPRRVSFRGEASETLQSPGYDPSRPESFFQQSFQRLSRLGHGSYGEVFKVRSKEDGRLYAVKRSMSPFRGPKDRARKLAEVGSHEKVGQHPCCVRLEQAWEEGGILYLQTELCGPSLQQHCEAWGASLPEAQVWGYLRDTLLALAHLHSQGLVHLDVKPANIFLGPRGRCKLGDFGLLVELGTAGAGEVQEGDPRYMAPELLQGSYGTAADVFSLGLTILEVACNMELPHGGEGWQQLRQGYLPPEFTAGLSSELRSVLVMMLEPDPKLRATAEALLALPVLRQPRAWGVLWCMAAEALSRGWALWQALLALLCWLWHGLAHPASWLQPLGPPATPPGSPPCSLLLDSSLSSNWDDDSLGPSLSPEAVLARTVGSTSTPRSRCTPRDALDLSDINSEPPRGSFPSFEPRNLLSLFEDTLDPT

Row | Structure (SMILES) | IC50 (PKMYT1) [µM] | IC50 (WEE1) [µM]
1 | Cc1ccc(O)c(C)c1-n1nc(-c2nc(C(F)(F)F)cs2)c(C(N)=O)c1N [Example 3, 5-amino-1-(3-hydroxy-2,6-dimethylphenyl)-3-(4-(trifluoromethyl)thiazol-2-yl)-1H-pyrazole-4-carboxamide] | < 0.01 | 0.05 to 0.5
2 | Cc1c(O)ccc(Cl)c1-n1nc(-c2nccs2)c(C(N)=O)c1N [Example 6, 5-amino-1-(6-chloro-3-hydroxy-2-methylphenyl)-3-(thiazol-2-yl)-1H-pyrazole-4-carboxamide] | < 0.01 | 0.05 to 0.5
3 | Cc1ccc(O)c(C)c1-n1nc(-c2ccn(C(F)F)n2)c(C(N)=O)c1N [Example 9, 5-amino-1′-(difluoromethyl)-1-(3-hydroxy-2,6-dimethylphenyl)-1H,1′H-[3,3′-bipyrazole]-4-carboxamide] | < 0.01 | 0.05 to 0.5
4 | Cc1ccc(O)c(C)c1-n1nc(-c2ncc3n2CCCC3)c(C(N)=O)c1N [Example 11, 5-amino-1-(3-hydroxy-2,6-dimethylphenyl)-3-(5,6,7,8-tetrahydroimidazo[1,5-a]pyridin-3-yl)-1H-pyrazole-4-carboxamide] | 0.05 to 0.5 | 
5 | Cc1ccc(O)c(C)c1-n1nc(-c2ccn(CC(C)(C)O)n2)c(C(N)=O)c1N [Example 8, 5-amino-1-(3-hydroxy-2,6-dimethylphenyl)-1′-(2-hydroxy-2-methylpropyl)-1H,1′H-[3,3′-bipyrazole]-4-carboxamide] | 0.05 to 0.5 | > 5
6 | Cc1ccc(O)c(C)c1-n1nc(-c2ccc(C(F)(F)F)cn2)c(C(N)=O)c1N [Example 10, 5-amino-1-(3-hydroxy-2,6-dimethylphenyl)-3-(5-(trifluoromethyl)pyridin-2-yl)-1H-pyrazole-4-carboxamide] | 0.01 to 0.05 | 0.5 to 5
7 | Cc1csc(-c2nn(-c3c(C)ccc(O)c3C)c(N)c2C(N)=O)n1 [Example 4, 5-amino-1-(3-hydroxy-2,6-dimethylphenyl)-3-(4-methylthiazol-2-yl)-1H-pyrazole-4-carboxamide] | < 0.01 | 
8 | Cc1cnc(-c2nn(-c3c(C)ccc(O)c3C)c(N)c2C(N)=O)s1 [Example 5, 5-amino-1-(3-hydroxy-2,6-dimethylphenyl)-3-(5-methylthiazol-2-yl)-1H-pyrazole-4-carboxamide] | < 0.01 | 
9 | Cc1ccc(O)c(C)c1-n1nc(-c2nccs2)c(C(N)=O)c1N [Example 1, 5-amino-1-(3-hydroxy-2,6-dimethylphenyl)-3-(thiazol-2-yl)-1H-pyrazole-4-carboxamide] | < 0.01 | 0.05 to 0.5
10 | Cc1ccc(O)c(C)c1-n1nc(-c2nc3cnccc3s2)c(C(N)=O)c1N [Example 7, 5-amino-1-(3-hydroxy-2,6-dimethylphenyl)-3-(thiazolo[4,5-c]pyridin-2-yl)-1H-pyrazole-4-carboxamide] | 0.01 to 0.05 | 0.5 to 5
11 | Cc1ccc(O)c(C)c1-n1nc(-c2nccs2)c(C(N)=O)c1N [Example 2, 5-amino-1-(3-hydroxy-2,6-dimethylphenyl)-3-(thiazol-2-yl)-1H-pyrazole-4-carboxamide] |  | 0.05 to 0.5
